Experimental data taken from patent US6413972B1, “Nitrogen-containing heterocyclic compounds, their production and use” (Takeda Chemical Industries, Ltd., priority 1997, dated 2002).
Structures can show the parent of a compound that is named as a salt.

Experiments:
human GnRH receptor = biological target: T1, human GnRH receptor (Homo sapiens, UniProt P30968); experiment: 125I-leuprorelin binding inhibition on CHO cell membrane fraction containing human GnRH receptor; details: membrane fraction of human GnRH receptor-expressing CHO cells, 25° C. for 60 minutes, from a Hill plot
T1 construct: expressed in transfected cells; host or cells: CHO (Chinese hamster ovary) cells; membrane fraction
T1 sequence (P30968 1-328): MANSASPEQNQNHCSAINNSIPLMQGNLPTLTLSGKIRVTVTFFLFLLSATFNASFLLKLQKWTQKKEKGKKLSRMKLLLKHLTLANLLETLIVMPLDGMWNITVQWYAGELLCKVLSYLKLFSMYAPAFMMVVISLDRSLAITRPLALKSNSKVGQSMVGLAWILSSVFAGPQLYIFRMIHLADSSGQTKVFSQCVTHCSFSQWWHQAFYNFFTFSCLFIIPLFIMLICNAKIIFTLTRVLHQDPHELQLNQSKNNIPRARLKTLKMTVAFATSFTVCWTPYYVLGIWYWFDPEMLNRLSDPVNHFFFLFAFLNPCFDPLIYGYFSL
Description: To a tube containing 10 μl of a 3×10^−4 M aqueous solution of leuprorelin and 10 μl of 0.01 mg/ml lactoperoxidase, 10 μl (37 MBq) of a solution of Na^125I was added. After stirring, 10 μl of 0.001% H2O2 was added, and a reaction was carried out at about 15 to 25° C. for 20 minutes. By adding 700 μl of a 0.05% TFA (trifluoroacetic acid) solution, the reaction was stopped, followed by purification by reversed-phase HPLC. The HPLC conditions used are shown below. ^125I-leuprorelin was eluted at a retention time of 26 to 27 minutes. […]
The human membrane fraction prepared in paragraph (2) above was diluted with the assay buffer to yield a 200 μg/ml dilution, which was then dispensed at 188 μl per tube. […] To determine maximum binding quantity, a reaction mixture of 2 μl of 60% DMSO and 10 μl of 38 nM ^125I-leuprorelin was prepared. […]
After a reaction was carried out at 25° C. for 60 minutes, the reaction mixture was aspirated and filtered through a polyethyleneimine-treated Whatman glass filter (GF-F). After this filtration, the radioactivity of ^125I-leuprorelin remaining on the filter paper was measured, using a γ-counter.
The binding inhibition rate (%) for the subject compound (PMB) was calculated, using the equation: […]

Structure (SMILES)	melting point	IC50 (human GnRH receptor)
CCOC(=O)c1cn(Cc2c(F)cccc2F)c2nc(-c3ccc([N+](=O)[O-])cc3)c(CO)n2c1=O [Example 11, 8-(2,6-difluorobenzyl)-5,8-dihydro-3-(hydroxymethyl)-2-(4-nitrophenyl)-5-oxoimidazo[1,2-a]pyrimidine-6-carboxylic acid ethyl ester]	230 to 232 °C	
CCOC(=O)c1cn(Cc2c(F)cccc2F)c2nc(-c3ccc(N)cc3)c(CN(C)Cc3ccccc3)n2c1=O [Example 12, 2-(4-aminophenyl)-8-(2,6-difluorobenzyl)-5,8-dihydro-3-(N-methyl-N-benzylaminomethyl)-5-oxoimidazo[1,2-a]pyrimidine-6-carboxylic acid ethyl ester]	161 to 166 °C	
CON(C)C(=O)c1cn(Cc2c(F)cccc2F)c2nc(-c3ccc(N)cc3)c(CN(C)Cc3ccccc3)n2c1=O [Example 30, 8-(2,6-difluorobenzyl)-5,8-dihydro-2-(4-aminophenyl)-3-(N-methyl-N-benzylaminomethyl)-5-oxoimidazo[1,2-a]pyrimidine-6-(N-methyl-N-methoxy)carboxamide]	89 to 91 °C	
CCOC(=O)c1cn(Cc2c(F)cccc2F)c2nc(-c3ccc(NC(=O)C(C)C)cc3)c(CN(C)Cc3ccccc3)n2c1=O [Example 14, 8-(2,6-difluorobenzyl)-5,8-dihydro-2-(4-isobutyrylaminophenyl)-3-(N-methyl-N-benzylaminomethyl)-5-oxoimidazo[1,2-a]pyrimidine-6-carboxylic acid ethyl ester]	98 to 103 °C	
CCOC(=O)c1cn(Cc2c(F)cccc2F)c2nc(-c3ccc([N+](=O)[O-])cc3)c(C)n2c1=O [Example 5, 8-(2,6-difluorobenzyl)-5,8-dihydro-3-methyl-2-(4-nitrophenyl)-5-oxoimidazo[1,2-a]pyrimidine-6-carboxylic acid ethyl ester]	219 to 221 °C	
CCNC(=O)Nc1ccc(-c2nc3n(Cc4c(F)cccc4F)cc(C(=O)OC(C)C)c(=O)n3c2CN(C)Cc2ccccc2)cc1 [Example 34, 8-(2,6-difluorobenzyl)-5,8-dihydro-2-[4-(ethylaminocarbonylamino)phenyl]-3-(N-methyl-N-benzylaminomethyl)-5-oxoimidazo[1,2-a]pyrimidine-6-carboxylic acid isopropyl ester]	198 to 200 °C	
CCOC(=O)c1cn(Cc2c(F)cccc2F)c2nc(-c3ccc([N+](=O)[O-])cc3)c(CBr)n2c1=O [Example 7, 3-bromomethyl-8-(2,6-difluorobenzyl)-5,8-dihydro-2-(4-nitrophenyl)-5-oxoimidazo[1,2-a]pyrimidine-6-carboxylic acid ethyl ester]	205 to 210 °C	
Cc1c(Cc2ccccc2)c(=O)n2c(CN(C)Cc3ccccc3)c(-c3ccc(NC(=O)OC(C)(C)C)cc3)nc2n1Cc1c(F)cccc1F [Example 19, 2-[4-(N-Boc-amino)phenyl]-8-(2,6-difluorobenzyl)-5,8-dihydro-3-(N-methyl-N-benzylaminomethyl)-6-benzyl-7-methyl-5-oxoimidazo[1,2-a]pyrimidine]	179 to 184 °C	
Cc1c(-c2ccccc2)nc2n(Cc3c(F)cccc3F)cc(C(=O)CC(C)C)c(=O)n12 (as salt: hydrochloride) [Example 28, 8-(2,6-difluorobenzyl)-5,8-dihydro-2-phenyl-3-methyl-6-(3-methylbutyryl)-5-oxoimidazo[1,2-a]pyrimidine]	158 to 166 °C	
CCNC(=O)Nc1ccc(-c2nc3n(Cc4c(F)cccc4F)cc(C(=O)OCC)c(=O)n3c2CN(C)Cc2ccccc2)cc1 [Example 15, 8-(2,6-difluorobenzyl)-5,8-dihydro-2-(4-ethylaminocarbonylaminophenyl)-3-(N-methyl-N-benzylaminomethyl)-5-oxoimidazo[1,2-a]pyrimidine-6-carboxylic acid ethyl ester]	191 to 196 °C	0.5 nM
CCOC(=O)c1cnc2nc(-c3ccccc3)c(C)n2c1O [Example 1, 5-hydroxy-3-methyl-2-phenylimidazo[1,2-a]pyrimidine-6-carboxylic acid ethyl ester]	220 to 225 °C	
CC(=O)N(C(=O)OC(C)(C)C)c1ccc(-c2nc3n(Cc4c(F)cccc4F)c(C)c(Cc4ccccc4)c(=O)n3c2C)cc1 [Example 17, 8-(2,6-difluorobenzyl)-5,8-dihydro-2-(4-(N-Boc-N-acetylamino)phenyl)-3-methyl-6-benzyl-7-methyl-5-oxoimidazo[1,2-a]pyrimidine]	176 to 177 °C	
CN(Cc1ccccc1)Cc1c(-c2ccc(NC(=O)c3ccoc3)cc2)nc2n(Cc3c(F)cccc3F)cc(C(=O)c3ccccc3)c(=O)n12 [Example 31, 8-(2,6-difluorobenzyl)-5,8-dihydro-2-(3-furylcarbonylaminophenyl)-3-(N-methyl-N-benzylaminomethyl)-6-benzoyl-5-oxoimidazo [1,2-a]pyrimidine]	172 to 174 °C	
CCOC(=O)c1cn(Cc2c(F)cccc2F)c2nc(-c3ccc([N+](=O)[O-])cc3)c(CN(C)Cc3ccccc3)n2c1=O [Example 9, 8-(2,6-difluorobenzyl)-5,8-dihydro-3-(N-methyl-N-benzylaminomethyl)-2-(4-nitrophenyl)-5-oxoimidazo[1,2-a]pyrimidine-6-carboxylic acid ethyl ester]	187 to 189 °C	
